From patent US5925633A, “3-Substituted-4-oxa-1-azabicyclo [3,2,0]heptan-7-one as cysteine protease inhibitors” (Synphar Laboraties, Inc., priority 1996, dated 1999)
Like-named read-outs stand apart in the source and are kept apart here.

Assays:
[1] = biological target: T1, papain (Carica papaya, UniProt P00784); test: In vitro assay procedure for papain (inhibition); assay type: biochemical
T1 sequence (P00784 134-345): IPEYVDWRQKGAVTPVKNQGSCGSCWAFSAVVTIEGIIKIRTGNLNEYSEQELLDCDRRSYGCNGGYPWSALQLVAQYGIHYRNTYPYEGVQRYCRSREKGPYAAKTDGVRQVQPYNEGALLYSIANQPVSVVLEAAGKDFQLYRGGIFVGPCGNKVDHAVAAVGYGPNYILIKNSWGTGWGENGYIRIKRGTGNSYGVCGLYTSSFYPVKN
Method: To a 170 μl of enzyme-buffer mixture (enzyme: papain, diluted to give 30 mOD/min, buffer: 0.2 M potassium phosphate, 1.0 mM EDTA, 5 mM L-Cysteine, pH 6.5) a 10 μL of inhibitor (dissolved in DMSO) was added. After 10 min of incubation at room temperature, a 20 μl of 10 mM substrate (N-CBZ-Pro-Phe-Arg-pNA, dissolved in DMSO) was added to initiate reaction. Reading is followed up for 3 min at the Thermomax plate reader (absorbance at 405 nm)
A plot of percentage of inhibition vs inhibitor concentration is obtained, and IC50 is determined using a linear regression calculations (concentration of inhibitor which will give 50% inhibition).

[2] = biological target: cathepsin B (Rattus norvegicus, UniProt P00787); test: In vitro assay procedure for cathepsin B (inhibition); assay type: biochemical
Method: The compounds of formula I were tested for inhibition of cathepsin B using the known method (A. J. Barret et al., Biochem. J. 1982, 201, 189-198). […] After 10 min of incubation at room temperature, a 20 μl of 5 mM substrate (N-CBZ-Phe-Arg-AMC, dissolved in DMSO) was added to initiate reaction. Reading is followed up for 10 min at the fluoroscan reader (excitation at 380 nm, emission at 460 nm).

[3] = rat cathepsin B, pH 5.1, 10 min incubation at room temperature, substrate N-CBZ-Phe-Arg-AMC, read-out: IC50 Cathepsin B
[4] = pH 6.5, 10 min incubation at room temperature, substrate N-CBZ-Pro-Phe-Arg-pNA, read-out: IC50 Papain

Sequence of cathepsin B (P00787 80-339): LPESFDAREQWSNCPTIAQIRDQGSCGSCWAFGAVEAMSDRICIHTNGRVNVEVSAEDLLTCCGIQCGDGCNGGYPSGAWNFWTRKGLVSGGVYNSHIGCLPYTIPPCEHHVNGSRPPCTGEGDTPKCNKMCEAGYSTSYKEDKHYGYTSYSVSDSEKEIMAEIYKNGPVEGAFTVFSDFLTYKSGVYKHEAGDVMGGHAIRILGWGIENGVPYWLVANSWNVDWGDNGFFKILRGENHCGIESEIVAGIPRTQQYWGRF

| Compound | IC50 [1] [µM] | IC50 [2, 3] [µM] | IC50 [1, 4] [µM] | IC50 [2] [µM] |
| --- | --- | --- | --- | --- |
| O=C(O)CC1CN2C(=O)CC2O1 (stereo not shown) | 1.69 | 3.98 |  |  |
| O=C(N[C@@H](Cc1ccccc1)C(=O)OC[C@H]1CN2C(=O)C[C@@H]2O1)OCc1ccccc1 (mixture of isomers) [Example 4, (3RS,5SR)-3-{N-(benzyloxycarbonyl)-L-phenylalanyl}-oxymethyl-4-oxa-1-azabicyclo [3,2,0] heptan-7-one] |  | 0.59 | 0.24 |  |
| O=C(OC[C@H]1CN2C(=O)C[C@@H]2O1)[C@@H]1CCCN1C(=O)OCc1ccccc1 (mixture of isomers) [Example 5, (3RS,5SR)-3-{N-(benzyloxycarbonyl)-L-prolyl}-oxymethyl-4-oxa-1-azabicyclo[3,2,0] heptan-7-one] |  | 0.44 | 0.49 |  |
| CC[C@H](C)[C@H](NC(=O)OCc1ccccc1)C(=O)OC[C@H]1CN2C(=O)C[C@@H]2O1 (mixture of isomers) [Example 6, (3RS,5SR) -3-{N-(benzyloxycarbonyl)-L-isoleucyl}-oxymethyl-4-oxa-1-azabicyclo [3,2,0] heptan-7-one] |  | 0.51 | 0.38 |  |
| O=C(CNC(=O)[C@H](Cc1ccccc1)NC(=O)OCc1ccccc1)OC[C@H]1CN2C(=O)C[C@@H]2O1 (mixture of isomers) [Example 7, (3RS,5SR)-3-{N-(benzyloxycarbonyl)-L-phenylalanyl-glycyl}-oxymethyl-4-oxa-1-azabicyclo [3,2,0] heptan-7-one] |  | 3.11 | 3.51 |  |
| CC[C@H](C)[C@H](NC(=O)OCc1ccccc1)C(=O)N1CCC[C@H]1C(=O)OC[C@H]1CN2C(=O)C[C@@H]2O1 (mixture of isomers) [Example 8, (3RS, 5SR)-3-{N-(benzyloxycarbonyl)-L-isoleucyl-L-prolyl}-oxymethyl-4-oxa-1-azabicyclo [3,2,0] heptan-7-one] |  | 4.5 | 0.74 |  |
| CC(C)C[C@H](NC(=O)OCc1ccccc1)C(=O)N1CCC[C@H]1C(=O)OC[C@H]1CN2C(=O)C[C@@H]2O1 (mixture of isomers) [Example 9, (3RS, 5SR)-3-{N-(benzyloxycarbonyl)-L-leucyl-L-prolyl}-oxymethyl-4-oxa-1-azabicyclo [3,2,0] heptan-7-one] |  | 2.9 | 2.05 |  |
| O=C(OC[C@H]1CN2C(=O)C[C@@H]2O1)C1CCCCC1 (racemic) [Example 11, (3RS,5SR)-3-(cyclohexanecarbonyloxymethyl)-4-oxa-1-azabicyclo [3,2,0] heptan-7-one] |  | 0.79 | 1 |  |
| O=C(OC[C@H]1CN2C(=O)C[C@@H]2O1)C1CCCC1 (racemic) [Example 12, (3RS,5SR)-3-(cyclopentanecarbonyloxymethyl)-4-oxa-1-azabicyclo [3,2,0] heptan-7-one] |  | 0.66 | 1.13 |  |
| Cc1c(C(=O)NC[C@@H]2CN3C(=O)C[C@@H]3O2)c(=O)[nH]c2ccccc12 (racemic) [Example 16, (3RS, 5SR)-3-(1,2-dihydro-4-methyl-2-oxo-quinolin-3-yl)-carbonylaminomethyl-4-oxa-1-azabicyclo [3,2,0] heptan-7-one] |  | 4.2 | 0.7 |  |
| Cc1c(C(=O)OC[C@H]2CN3C(=O)C[C@@H]3O2)c(=O)[nH]c2ccccc12 (relative stereo) [Example 10, (3RS, 5SR)-3-(1,2-dihydro-4-methyl-2-oxo-guinolin-3-yl)-carbonyloxymethyl-4-oxa-1-azabicyclo [3,2,0] heptan-7-one] |  | 3.05 | 0.14 |  |
| O=C(/C=C/c1ccccc1)OC[C@H]1CN2C(=O)C[C@@H]2O1 (relative stereo) [Example 13, (3RS, 5SR)-3-(trans-3-phenylpropenoyl)oxymethyl-4-oxa-1-azabicyclo [3,2,0] heptan-7-one] |  | 4.06 | 0.45 |  |
| Cn1c2nc(=O)[nH]c(=O)c-2nc2cc(C(=O)OC[C@H]3CN4C(=O)C[C@@H]4O3)ccc21 (relative stereo) [Example 14, (3RS, 5SR)-3-(10-methylisoalloxazin-7-yl)-carbonyloxy methyl-4-oxa-1-azabicyclo [3,2,0] heptan-7-one] |  | 16.9 | 0.76 |  |
| CCOC(=O)c1ccc2c(c1)nc1c(=O)n(C[C@H]3CN4C(=O)C[C@@H]4O3)c(=O)nc-1n2C (relative stereo) [Example 15, (3RS, 5SR)-3-(7-ethoxycarbonyl-10-methylisoalloxazin-3-yl) -methyl-4-oxa-1-azabicyclo [3,2,0] heptan-7-one] |  | 2.89 | 1.24 |  |
| CC(C)(C)[Si](C)(C)OC[C@H]1CN2C(=O)C[C@@H]2O1 [Example 1A, (3R, 5S)-3-(tert-butyldimethylsilyl)oxymethyl-4-oxa-1-azabicyclo [3,2,0] heptan-7-one] |  |  | 0.16 | 0.778 |
| CC(C)(C)[Si](C)(C)OC[C@H]1CN2C(=O)C[C@H]2O1 [Example 1B, (3R, 5R)-3-(tert-butyldimethylsilyl)oxymethyl-4-oxa-1-azabicyclo [3,2,0] heptan-7-one] |  |  | 3.1 | 7.78 |
| O=C1C[C@@H]2O[C@@H](CO)CN12 [Example 2, (3R, 5S)-3-hydroxymethyl-4-oxa-1-azabicyclo[3,2,0] heptan-7-one] |  | 5 | 2.03 |  |
| CC(=O)NC[C@H]1CN2C(=O)C[C@@H]2O1 [Example 3, (3S,5S)-3-(N-acetylamino)methyl-4-oxa-1-azabicyclo [3,2,0] heptan-7-one] |  | 0.56 | 0.59 |  |
| O=C1C[C@@H]2O[C@@H](Cn3ccnn3)CN12 [Example 17, (3R,5S)-3-(1,2,3-triazol-1-yl)-methyl-4-oxa-1-azabicyclo [3,2,0] heptan-7-one] | 0.29 | 0.29 |  |  |
| O=C(CC1CN2C(=O)CC2O1)OC(c1ccccc1)c1ccccc1 (stereo not shown) [Example 18, diphenylmethyl 2-(7-oxo-4-oxa-1-azabicyclo [3,2,0]heptan-3-yl)-acetate] |  | 2.97 | 2.08 |  |
| O=C(OCc1ccccc1)[C@@H]1CCCN1C(=O)CC1CN2C(=O)CC2O1 (stereo partly drawn) [Example 20, N-{(7-oxo-4-oxa-1-azabicyclo [3,2,0]heptan-3-yl)-methylcarbonyl} L-proline benzyl ester] |  | 13.7 | 0.56 |  |
| NC(CC(=O)O)C(=O)NCC1CN2C(=O)CC2O1 (stereo not shown) [Example 21] |  | 12.6 | > 20 |  |
| NC(CC(=O)O)C(=O)OCC1CN2C(=O)CC2O1 (stereo not shown) [Example 22] |  | > 20 | > 20 |  |
| O=C(N[C@@H](Cc1ccccc1)C(=O)NCC1CN2C(=O)CC2O1)OCc1ccccc1 (stereo partly shown) [Example 23] |  | 2.4 | 0.35 |  |

| Compound | IC50 [1] [µM] | IC50 [2, 3] [µM] | IC50 [1, 4] [µM] | IC50 [2] [µM] |
| --- | --- | --- | --- | --- |
| NC(CCC(=O)OCC1CN2C(=O)CC2O1)C(=O)O (stereo not shown) [Example 24] |  | 12 | 2.92 |  |
| CC(N)C(=O)OCC1CN2C(=O)CC2O1 (stereo not shown) [Example 25] |  | > 20 | 3.31 |  |
| CC(N)C(=O)NCC1CN2C(=O)CC2O1 (stereo not shown) [Example 26] |  | > 20 | 2.91 |  |
| O=C(CCl)NCC1CN2C(=O)CC2O1 (stereo not shown) [Example 27] |  | 0.4 | 0.9 |  |
| O=C1CC2OC(CNC(=O)C(F)(F)F)CN12 (stereo not shown) [Example 28] |  | 0.33 | 0.84 |  |
| O=C(O)C[S+]([O-])CC1CN2C(=O)CC2O1 (stereo not shown) [Example 29] |  | 0.38 | 3.9 |  |
| CC(C)C(=O)NCC1CN2C(=O)CC2O1 (stereo not shown) [Example 30] |  | 0.46 | 0.95 |  |
| CC(=O)NCC(=O)NCC1CN2C(=O)CC2O1 (stereo not shown) [Example 31] |  | 2.6 | 4.1 |  |
| CCCCCC(=O)NCC1CN2C(=O)CC2O1 (stereo not shown) [Example 32] |  | 2.3 | 2.3 |  |
| CS(=O)(=O)NCC1CN2C(=O)CC2O1 (stereo not shown) [Example 33] |  | 0.95 | 0.91 |  |
| CC(=O)NCC[S+]([O-])CC1CN2C(=O)CC2O1 (stereo not shown) [Example 34] |  | 14.6 | 3.8 |  |
| O=C(O)CS(=O)(=O)CC1CN2C(=O)CC2O1 (stereo not shown) [Example 35] |  | 0.74 | 12.9 |  |
| CCCCCCCCCCCCCCCC(=O)OCC1CN2C(=O)CC2O1 (stereo not shown) [Example 36] |  | > 50 | > 50 |  |
| O=C(O)C=CC(=O)OCC1CN2C(=O)CC2O1 (stereo not shown) [Example 37] |  | 1.9 | 19 |  |
| O=COCCCCCC(=O)NCC1CN2C(=O)CC2O1 (stereo not shown) [Example 38] |  | 3.5 | 2.2 |  |
| NCC1CN2C(=O)CC2O1 (stereo not shown) [Example 39] |  | 5.5 | 5.5 |  |
| NC(CC(=O)O)C(=O)NCC(=O)NCC1CN2C(=O)CC2O1 (stereo not shown) [Example 40] |  | 15.9 | 8.3 |  |
| CC(=O)NCCCCC(NC(C)=O)C(=O)OCC1CN2C(=O)CC2O1 (stereo not shown) [Example 43] |  | > 70 | 1.77 |  |
| CC(=O)OCC1CN2C(=O)CC2O1 (stereo not shown) [Example 44] |  | 1.1 | 0.21 |  |
| O=C(CO)NCC1CN2C(=O)CC2O1 (stereo not shown) [Example 45] |  | 5 | 1.69 |  |
| O=C(OCC1CN2C(=O)CC2O1)c1ccc2c(c1)C(=O)c1ccccc1C2=O (stereo not shown) [Example 46] |  | 0.53 | 0.021 |  |
| COc1ccc(C(=O)NCC2CN3C(=O)CC3O2)cc1OC (stereo not shown) [Example 47] |  | 8.8 | 0.13 |  |
| O=C1CC2OC(CSc3ccccc3)CN12 (stereo not shown) [Example 48] |  | 0.42 | 0.85 |  |
